From patent US20240360114A1 (SIRONAX LTD., priority 2021, published 2024)

These compounds were tested on HT-1080 cells (assay: HT-1080 cell viability assay (ferroptosis induced by RSL3, Cell Titer-Glo)). Details: Homo sapiens, HT-1080, 20 h, ferroptosis inducer RSL3, 20 hours, ferroptosis inhibitory activity, Table 2.
Format: cell-based
Summary of the method: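 Cells seeded overnight, then co-treated with RSL3 and compound (3-fold, 10-point dilution, top 1.1 μM) for 20 hours. Viability by CellTiter-Glo luminescence, normalized to untreated controls; EC50 from sigmoidal non-linear regression.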

Compound | EC50
O=C1CC(C(=O)NCC2CCC(Nc3ccc(N4CCC(C(F)(F)F)CC4)cc3)CC2)CN1 (stereo not shown) [Compound 2, 5-oxo-N-((4-((4-(4-(trifluoromethyl)piperidin-1-yl)phenyl)amino)cyclohexyl)methyl)pyrrolidine-3-carboxamide] | 0.1 to 100 nM
CC(C)(C)c1ccc(NC2CCC(NC(N)=O)CC2)cc1 (stereo not shown) [Compound 266A, 1-(4-((4-(tert-butyl)phenyl)amino)cyclohexyl)urea] | 100 to 1000 nM
CC(C)(C)c1ccc(NC[C@H]2CC[C@H](N)CC2)cc1 [Compound 260, N-(((1r,4r)-4-aminocyclohexyl)methyl)-4-(tert-butyl)aniline] | 0.1 to 100 nM
O=C1NC[C@H](C(=O)NCC2CCC(Nc3ccc(C4CCCCC4)cc3)CC2)N1 (single isomer, unassigned) [Compound 117A] | 0.1 to 100 nM
CC1(C)CCC(c2ccc(NC3CCC(C(N)=O)C3)cc2)CC1 (single isomer, unassigned) [Compound 146A, 3-((4-(4,4-dimethylcyclohexyl)phenyl)amino)cyclopentane-1-carboxamide] | 0.1 to 100 nM
CC(C)(C)c1ccc(NC2CCC(N)CC2)cc1Cl (stereo not shown) [Compound 201, N1-(4-(tert-butyl)-3-chlorophenyl)cyclohexane-1,4-diamine] | 100 to 1000 nM
CC(C)(CN1CCCC1)Nc1ccc(C(C)(C)C)cc1 [Compound 227, 4-(tert-butyl)-N-(2-methyl-1-(pyrrolidin-1-yl)propan-2-yl)aniline] | 1000 to 10000 nM
CCCc1ccc(NC2CCC(CCN)CC2)cc1 (stereo not shown) [Compound 292, N-(4-(2-aminoethyl)cyclohexyl)-4-propylaniline] | 0.1 to 100 nM
CN1CCC(NC(=O)C2CCC(Nc3ccc(C4CCC(C)(C)CC4)cc3)CC2)CC1 (stereo not shown) [Compound 77, 4-((4-(4,4-dimethylcyclohexyl)phenyl)amino)-N-(1-methylpiperidin-4-yl)cyclohexane-1-carbox amide] | 0.1 to 100 nM
CC(C)(C)c1ccc(NC[C@H]2CC[C@H](NCCO)CC2)cc1 [Compound 323, 2-(((1r,4r)-4-(((4-(tert-butyl)phenyl)amino)methyl)cyclohexyl)amino)ethan-1-ol] | 0.1 to 100 nM
CCOCCCc1ccc(N[C@H]2CC[C@H](N)CC2)cc1 [Compound 293, (1r,4r)-N1-(4-(3-ethoxypropyl)phenyl)cyclohexane-1,4-diamine] | 100 to 1000 nM
CC1(C)CCC(c2ccc(NC3CCC(CN)C3)cc2)CC1 (stereo not shown) [Compound 83, N-(3-(aminomethyl)cyclopentyl)-4-(4,4-dimethylcyclohexyl)aniline] | 0.1 to 100 nM
CCCc1ccc(NC2CCC(CN)CC2)cc1 (stereo not shown) [Compound 291, N-(4-(aminomethyl)cyclohexyl)-4-propylaniline] | 0.1 to 100 nM
Cc1nc(N2CCC(C)CC2)ccc1NC1CCC(CN)CC1 (stereo not shown) [Compound 26, N-(4-(aminomethyl)cyclohexyl)-2-methyl-6-(4-methylpiperidin-1-yl)pyridin-3-amine] | 0.1 to 100 nM
CCCCOc1ccc(NC2CCC(N)CC2)cc1 (single isomer, unassigned) [Compound 142A, N1-(4-butoxyphenyl)cyclohexane-1,4-diamine] | 0.1 to 100 nM
CC(C)(C)c1ccc(NC2CCC(NCCCO)CC2)cc1 (stereo not shown) [Compound 317, 3-((4-((4-(tert-butyl)phenyl)amino)cyclohexyl)amino)propan-1-ol] | 0.1 to 100 nM

The next lines start with the values.

EC50 | Compound
0.1 to 100 nM | CCC(C)(C)c1ccc(NC2CC(CN)C2)cc1 (stereo not shown) [Compound 333, N-(3-(aminomethyl)cyclobutyl)-4-(tert-pentyl)aniline]
0.1 to 100 nM | CC(C)C1CCN(c2ncc(NC3CCC(C(N)=O)CC3)cn2)CC1 (stereo not shown) [Compound 404, 4-((2-(4-isopropylpiperidin-1-yl)pyrimidin-5-yl)amino)cyclohexane-1-carboxamide]
0.1 to 100 nM | CCC1CCN(c2ccc(NC3CCC(N)CC3)c(C)c2)CC1 (stereo not shown) [Compound 390, N1-(4-(4-ethylpiperidin-1-yl)-2-methylphenyl)cyclohexane-1,4-diamine]
0.1 to 100 nM | Cc1nc(N2CC3COCC3C2)ccc1NC1CC2(CC(N)C2)C1 (stereo not shown) [Compound 521]
0.1 to 100 nM | Cc1cc(NC2CC(C(N)=O)C2)ccc1N1CCC(C(F)(F)F)CC1 (stereo not shown) [Compound 437, 3-((3-methyl-4-(4-(trifluoromethyl)piperidin-1-yl)phenyl)amino)cyclobutane-1-carboxamide]
0.1 to 100 nM | CC(Nc1ccc(C(C)(C)C)cc1)[C@H]1CC[C@H](N)CC1 (stereo partly drawn) [Compound 350, N—((S)-1-((1r,4S)-4-aminocyclohexyl)ethyl)-4-(tert-butyl)aniline]
0.1 to 100 nM | CC1(C)CCc2cc(NC3CCC(N)CC3)ccc21 (stereo not shown) [Compound 330A, N1-(1,1-dimethyl-2,3-dihydro-1H-inden-5-yl)cyclohexane-1,4-diamine]
100 to 1000 nM | Cc1nc(N2CCCOCC2)ccc1NC1CC2(CC(N)C2)C1 (stereo not shown) [Compound 499, N2-(2-methyl-6-(1,4-oxazepan-4-yl)pyridin-3-yl)spiro[3.3]heptane-2,6-diamine]
0.1 to 100 nM | CC1CN(c2ccc(NC[C@H]3CC[C@H](N)CC3)cc2F)CC(C)O1 (stereo partly shown) [Compound 430, N-(((1r,4r)-4-aminocyclohexyl)methyl)-4-(2,6-dimethylmorpholino)-3-fluoroaniline]
0.1 to 100 nM | CC[C@@H]1CN(c2ccc(NC3CCC(N)CC3)c(C)n2)C[C@@H](CC)O1 (stereo partly drawn) [Compound 552, N1-(6-((2R,6R)-2,6-diethylmorpholino)-2-methylpyridin-3-yl)cyclohexane-1,4-diamine]
0.1 to 100 nM | CC(C)(C)c1ccc(NC2CCC(CNC(=N)N)CC2)cc1 (stereo not shown) [Compound 344, 1-((4-((4-(tert-butyl)phenyl)amino)cyclohexyl)methyl)guanidine]
0.1 to 100 nM | CC(C)C1CCN(c2ncc(NC3C4CC5CC3CC(O)(C5)C4)cn2)CC1 (stereo not shown) [Compound 424, 4-((2-(4-isopropylpiperidin-1-yl)pyrimidin-5-yl)amino) adamantan-1-ol]
0.1 to 100 nM | Cc1nc(N2CC(C)OC(C)C2)c(F)cc1NC1C2CC3CC1CC(N)(C3)C2 (stereo not shown) [Compound 519, N4-(6-(2,6-dimethylmorpholino)-5-fluoro-2-methylpyridin-3-yl)adamantane-1,4-diamine]
0.1 to 100 nM | CC(C)C1CCN(c2ncc(NC3C[C@H]4CC(N)C[C@H]4C3)cn2)CC1 (stereo partly drawn) [Compound 362, (3aR, 6aS)-N2-(2-(4-isopropylpiperidin-1-yl)pyrimidin-5-yl) octahydropentalene-2,5-diamine]
0.1 to 100 nM | Cc1nc(N2CCC(C(F)(F)F)CC2)ccc1NC[C@H]1CC[C@H](N)CC1 [Compound 371, N-(((1r,4r)-4-aminocyclohexyl)methyl)-2-methyl-6-(4-(trifluoromethyl)piperidin-1-yl)pyridin-3-amine]
0.1 to 100 nM | CC(C)C1CCN(c2ncc(NC3C4CC5CC3CC(CN)(C5)C4)cn2)CC1 (stereo not shown) [Compound 370, N-(5-(aminomethyl)adamantan-2-yl)-2-(4-isopropylpiperidin-1-yl)pyrimidin-5-amine]
0.1 to 100 nM | Cc1cc(N2CCC(C(F)(F)F)C2)ccc1NC[C@H]1CC[C@H](N)CC1 (stereo partly shown) [Compound 419, N-(((1r,4r)-4-aminocyclohexyl)methyl)-2-methyl-4-(3-(trifluoromethyl)pyrrolidin-1-yl)aniline]
100 to 1000 nM | Cc1cc(N2C[C@@H](C)O[C@@H](C)C2)ncc1NC1CC2(CC(N)C2)C1 (stereo partly drawn) [Compound 487, N2-(6-((2S,6R)-2,6-dimethylmorpholino)-4-methylpyridin-3-yl)spiro[3.3]heptane-2,6-diamine]

Same assay, conditions: Homo sapiens, HT-1080, 20 h, ferroptosis inducer RSL3, 20 hours, ferroptosis inhibitory activity, Table 3

EC50 | Compound
0.1 to 100 nM | Cc1nc(N2CCOC3(CC3)C2)ccc1NC1CC2(CC(N)C2)C1 (stereo not shown) [Compound 623, N^2-(2-methyl-6-(4-oxa-7-azaspiro[2.5]octan-7-yl)pyridin-3-yl)spiro[3.3]heptane-2,6-diamine]
0.1 to 100 nM | CC(C)c1nc(N2C[C@@H](C)O[C@@H](C)C2)ccc1NC1CC2(CC(N)C2)C1 (stereo partly drawn) [Compound 613, N^2-(6-((2S, 6R)-2,6-dimethylmorpholino)-2-isopropylpyridin-3-yl)spiro[3.3]heptane-2,6-diamine]
0.1 to 100 nM | Cc1cc(N2CC(C)N(CC(F)(F)F)C(C)C2)ccc1NC1CC2(CC(N)C2)C1 (stereo not shown) [Compound 636, N2-(4-(3,5-dimethyl-4-(2,2,2-trifluoroethyl)piperazin-1-yl)-2-methylphenyl)spiro[3.3]heptane-2,6-diamine]
100 to 1000 nM | CC(=O)N1CCN(CCNc2ccc(N3CC(C)OC(C)C3)nc2C)CC1 (stereo not shown) [Compound 607, 1-(4-(2-((6-(2,6-dimethylmorpholino)-2-methylpyridin-3-yl)amino)ethyl)piperazin-1-yl)ethan-1-one]
0.1 to 100 nM | Cc1nc(N2CCC(C)(C)CC2)ccc1NC[C@H]1CC[C@H](N)CC1 [Compound 617, N-(((1r,4r)-4-aminocyclohexyl)methyl)-6-(4,4-dimethylpiperidin-1-yl)-2-methylpyridin-3-amine]
0.1 to 100 nM | Cc1nc(N2C[C@@H](C)N(CC(F)(F)F)[C@@H](C)C2)ccc1NC1C[C@H]2CC(N)C[C@H]2C1 (stereo partly drawn) [Compound 577, (3aR,6aS)-N2-(6-((3R,5S)-3,5-dimethyl-4-(2.2,2-trifluoroethyl)piperazin-1-yl)-2-methylpyridin-3-yl)octahydropentalene-2,5-diamine]
0.1 to 100 nM | CC[C@@H]1CN(c2ccc(NC3CC4(C3)CC(C(N)=O)C4)c(C)n2)C[C@H](CC)O1 (stereo partly drawn) [Compound 575, 6-((6-((2S,6R)-2,6-diethylmorpholino)-2-methylpyridin-3-yl)amino)spiro[3.3]heptane-2-carboxamide]

Same assay, conditions: ferroptosis inducer RSL3, 20 hours, ferroptosis inhibitory activity, Table 2

EC50 | Compound
0.1 to 100 nM | CCC(C)(C)c1ccc(NC2CCC(NCCO)CC2)cc1 (single isomer, unassigned) [Compound 295B, 2-((4-((4-(tert-pentyl)phenyl)amino)cyclohexyl)amino)ethan-1-ol]
100 to 1000 nM | CCC(C)c1ccc(NC2CCC(N)CC2)cc1 (single isomer, unassigned) [Compound 289B, 1-N-(4-(sec-butyl)phenyl)cyclohexane-1,4-diamine]
